Results from the supplement of paper PMC10307832.

Key:
Test in all cases: relative viability (nuclei count vs DMSO), 5 days (fraction); higher = more cells survive
[1] = compound: Nc1ncn([C@H]2C[C@H](O)[C@@H](CO)O2)c(=O)n1 [Decitabine] + Cc1nc(Nc2ncc(C(=O)Nc3c(C)cccc3Cl)s2)cc(N2CCN(CCO)CC2)n1 [Dasatinib] (partner 0.075 µM)
Procedure, shortened: (§1)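 Relative viability equals treated-well nuclei counts divided by vehicle-well nuclei counts. Counts came from 4× images of lung cancer cell lines grown in 1536-well plates for 5 days after pin-tool dosing on the day after seeding. Dosing used one drug alone or a fixed anchor-drug dose plus five library-drug doses (not always all listed) in √10 steps, and values are medians of duplicate plates.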

[2] = compound: O=C(C[C@H]1NCCC[C@@H]1O)Cn1cnc2cc(Br)c(Cl)cc2c1=O (racemic) [Halofuginone] + Nc1nc2[nH]cc(CCc3ccc(C(=O)N[C@@H](CCC(=O)O)C(=O)O)cc3)c2c(=O)[nH]1 [Pemetrexed] (partner 0.2 µM)
Procedure, shortened: as §1

[3] = compound: Nc1ncn([C@H]2C[C@H](O)[C@@H](CO)O2)c(=O)n1 [Decitabine] + C[C@]1(O)C[C@@H](c2nc(-c3ccc4ccc(-c5ccccc5)nc4c3)c3c(N)nccn32)C1 [Linsitinib] (partner 1 µM)
Procedure, shortened: as §1

[4] = compound: COc1cc2c(Oc3ccc4[nH]c(C)cc4c3F)ncnc2cc1OCCCN1CCCC1 [Cediranib] + O=C(CCCCCCC(=O)Nc1ccccc1)NO [Vorinostat] (partner 1 µM)
Procedure, shortened: as §1

## UMC-11
[1]; first compound 0.04 µM
  relative viability: 0.496
[1]; first compound 0.1265 µM
  relative viability: 0.442
[1]; first compound 0.4 µM
  relative viability: 0.293
[1]; first compound 1.265 µM
  relative viability: 0.335
[1]; first compound 4 µM
  relative viability: 0.327
[2]; first compound 0.001 µM
  relative viability: 0.881
[2]; first compound 0.003162 µM
  relative viability: 0.834
[2]; first compound 0.01 µM
  relative viability: 0.727
[2]; first compound 0.03162 µM
  relative viability: 0.651
[2]; first compound 0.1 µM
  relative viability: 0.443
[3]; first compound 0.04 µM
  relative viability: 0.976
[3]; first compound 0.1265 µM
  relative viability: 0.802
[3]; first compound 0.4 µM
  relative viability: 0.448
[3]; first compound 1.265 µM
  relative viability: 0.38
[3]; first compound 4 µM
  relative viability: 0.335
[4]; first compound 0.04 µM
  relative viability: 0.396
[4]; first compound 0.1265 µM
  relative viability: 0.256
[4]; first compound 0.4 µM
  relative viability: 0.345
[4]; first compound 1.265 µM
  relative viability: 0.392
[4]; first compound 4 µM
  relative viability: 0.412
